In US4233304A, “Pyridoxine derivatives” (Crinos Industria Farmacobiologica S.p.A., priority 1978, dated 1980):

How the values were obtained:
[1] = Acute toxicity per os, single dose, LD50; conditions: mouse, in vivo, po
Description: The acute toxicity has been determined by administering the substances per os in a sole dose to the mouse after 18 hours of fasting. The LD50 has been determined according to Litchfield and Wilcoxon (J. Pharmacol. Exp. Ther. 96, 99, 1949).

[2] = in vivo; conditions: rat, po
Description: The ulcer-causing activity has been determined by administering the substances per os to rats which have fasted 18 hours and evaluating the presence of gastric lesions 7 hours after the treatment. The UD50 has been determined according to Litchfield and Wilcoxon (J. Pharmacol. Exp. Ther. 96, 99, 1949).

[3] = Anti-inflammatory activity, caraganin-edema test according to Winter et al; format: in vivo; conditions: rat, vs controls
Description: As referred above, the inventive compound of the instant invention show anti-inflammatory activity and moreover may show, although not necessarily, also analgesic and/or anti-pyretic activity. The anti-inflammatory activity of the novel compounds of the instant invention has been confirmed by means of the caraganin-edema test on the rat.
Caraganin-edema test according to Winter et al (Proc. Soc. Exp. Biol. Med., 111, 544, 1962) in the normal rat. […]

[4] = Analgesic activity, test of Randall and Selitto; format: in vivo; conditions: rat, variation from algogenic stimulus vs controls
Description: Test of Randall and Selitto (Arch. Ing. Pharmacodyn., 111, 409, 1957) on the rat. The analgesic activity is expressed as a percent variation from the algogenic stimulus, after 3 and 5 hours with respect to the controls.

[5] = tested on: mouse; conditions: footnote (1) Adams S.S. et al., Tox. Appl. Pharmacol., 15, 310, 1969; cited from earlier work

Structure (SMILES) | LD50 [1] [mg/kg] | TD50 at 7 h [2] [mg/kg] | Anti-inflammatory Inhibition ([3]; 6.25 mg/kg per os, 3 hrs) [%] | Anti-inflammatory Inhibition ([3]; 6.25 mg/kg per os, 5 hrs) [%] | Anti-inflammatory Inhibition ([3]; 12.5 mg/kg per os, 3 hrs) [%] | Anti-inflammatory Inhibition ([3]; 12.5 mg/kg per os, 5 hrs) [%] | Anti-inflammatory Inhibition ([3]; 25 mg/kg per os, 3 hrs) [%] | Anti-inflammatory Inhibition ([3]; 25 mg/kg per os, 5 hrs) [%] | Anti-inflammatory Inhibition ([3]; 50 mg/kg per os, 3 hrs) [%] | Anti-inflammatory Inhibition ([3]; 50 mg/kg per os, 5 hrs) [%] | Analgesic activity Variation ([4]; 12.5 mg/kg per os, 3 hrs) | Analgesic activity Variation ([4]; 12.5 mg/kg per os, 5 hrs) | Analgesic activity Variation ([4]; 50 mg/kg per os, 3 hrs) | Analgesic activity Variation ([4]; 50 mg/kg per os, 5 hrs) | Anti-inflammatory Inhibition ([3]; 100 mg/kg per os, 3 hrs) [%] | Anti-inflammatory Inhibition ([3]; 100 mg/kg per os, 5 hrs) [%] | LD50 per os/mouse [5] [mg/kg]
Cc1ncc(COC(=O)C(C)c2ccc(CC(C)C)cc2)c(CO)c1O (stereo not drawn) [2-(4-isobutyl-phenyl)-propionic pyridoxine 5-ester] | > 2000 | 365 | 27.1 | 24.8 | 41.1 | 28.4 | 48.6 | 37.6 | 55.1 | 42 | +61.2% | +71.4% | +129.6% | +134.3% |  |  | 
CC(C)Cc1ccc(C(C)C(=O)O)cc1 (stereo not drawn) [2-(4-isobutylphenyl)-propionic acid, reference compound] |  | 38 |  |  | 33.6 | 16.5 | 43.9 | 19.3 | 54.2 | 26.6 | +86.7% | +83.8% | +146.9% | +69.5% | 49.5 | 32.1 | 800
Cc1ncc(COC(=O)C(C)c2ccc(CC(C)C)cc2)c2c1OC(C)(C)OC2 (stereo not drawn) [2-(4-isobutylphenyl)-propionic isopropylidenepyridoxine 5-ester] | > 2200 | > 400 |  |  | 19.6 | 18.3 | 13.1 | 12.8 | 43.9 | 39.4 | +77.5% | +39.0% | +122.5% | +78.1% | 60.7 | 42.2 | 
